Reference: patent publication US11180504B2 (ORCHID PHARMA LTD., priority 2016, dated 2021)
In brackets after ≈: the same amount, converted by molar mass. Where two headings read alike, the source gives them in different places.

Key:
[1] = test system: carbapenem sensitive Escherichia coli; experiment: MIC by broth micro-dilution (CLSI), carbapenem sensitive E. coli; type: cell-based
[2] = test system: methicillin-sensitive Staphylococcus aureus; experiment: MIC by broth micro-dilution (CLSI), methicillin-sensitive S. aureus; type: cell-based; details: MSSA S. aureus ATCC29213
[3] = test system: carbapenem sensitive Pseudomonas aeruginosa; experiment: MIC by broth micro-dilution (CLSI), carbapenem sensitive P. aeruginosa; type: cell-based
[4] = test system: carbapenemase producing K. pneumoniae; experiment: MIC by broth micro-dilution (CLSI), carbapenemase producing K. pneumoniae; type: cell-based, Klebsiella pneumoniae
[5] = Escherichia coli, ATCC25922, ESBL −ve E. coli ATCC25922, read-out: MIC
[6] = Staphylococcus aureus, ATCC 29213 / MSSA, read-out: MIC
[7] = Pseudomonas aeruginosa, ATCC27853, Meropenem susceptible P. aeruginosa ATCC27853, read-out: MIC
[8] = Klebsiella pneumoniae, ATCCBAA1705, KPC-2 K. pneumoniae ATCC BAA-1705, read-out: MIC
[9] = Meropenem susceptible P. aeruginosa ATCC27853
[10] = KPC-2 K. pneumoniae ATCC BAA-1705

Row | Structure (SMILES) | MIC [1, 5] [µg/mL] | MIC [2, 6] [µg/mL] | MIC [3, 7] [µg/mL] | MIC [4, 8] [µg/mL] | MIC ([1]; ESBL −ve E. coli ATCC25922) [µg/mL] | MIC [2] [µg/mL] | MIC [3, 9] [µg/mL] | MIC [4, 10] [µg/mL] | MIC ([4]; Klebsiella pneumoniae, ATCCBAA1705) [µg/mL]
1 | C[C@@H](NC(=O)Cn1cnnn1)[C@H]1C(=O)N2C(C(=O)O)=C(S[C@@H]3CN[C@H](C(=O)N4CC(NC(=N)N)C4)C3)[C@H](C)[C@H]12 [Example 566, (4R,5S,6R)-6-((R)-1-(2-(1H-tetrazol-1-yl)acetamido)ethyl)-3-((3S,5S)-5-(3-guanidinoazetidine-1-carbonyl)pyrrolidin-3-ylthio)-4-methyl-7-oxo-1-azabicyclo[3.2.0]hept-2-ene-2-carboxylic acid] | 0.06 (≈ 0.107 µM) | 0.5 (≈ 0.89 µM) | 0.25 (≈ 0.445 µM) | 0.5 (≈ 0.89 µM) |  |  |  |  | 
2 | C[C@@H](NC(=O)Cn1cnnn1)[C@H]1C(=O)N2C(C(=O)[O-])=C(S[C@@H]3CN[C@H](C(=O)N4CCC5C[N+](C)(C)CCC54)C3)[C@H](C)[C@H]12 (some centres unmarked) [Example 599] |  |  |  |  | 1 (≈ 1.66 µM) | 4 (≈ 6.65 µM) | 4 (≈ 6.65 µM) | 2 (≈ 3.32 µM) | 
3 | C[C@@H](NC(=O)Cn1cnnn1)[C@H]1C(=O)N2C(C(=O)O)=C(S[C@@H]3CN[C@H](C(=O)N4CCC5(CC6CCC(C5)N6)C4)C3)[C@H](C)[C@H]12 (stereo partly drawn) [Example 397, (4R,5S,6R)-6-((R)-1-(2-(1H-tetrazol-1-yl)acetamido)ethyl)-3-((3S,5S)-5-(8-azaspiro[bicyclo[3.2.1]octane-3,3′-pyrrolidine]-1′-ylcarbonyl)pyrrolidin-3-ylthio)-4-methyl-7-oxo-1-azabicyclo[3.2.0]hept-2-ene-2-carboxylic acid] | 0.25 (≈ 0.407 µM) | 2 (≈ 3.26 µM) | 2 (≈ 3.26 µM) |  |  |  |  |  | 1 (≈ 1.63 µM)
4 | C[C@@H](NC(=O)Cn1cnnn1)[C@H]1C(=O)N2C(C(=O)O)=C(S[C@@H]3CN[C@H](C(=O)N4CC5CCNCC5(CO)C4)C3)[C@H](C)[C@H]12 (single isomer, unassigned) [Example 542] |  |  |  |  | 0.25 (≈ 0.414 µM) | 4 (≈ 6.63 µM) | 2 (≈ 3.31 µM) | 2 (≈ 3.31 µM) | 
5 | C[C@@H](NC(=O)Cn1cnnn1)[C@H]1C(=O)N2C(C(=O)O)=C(S[C@@H]3CN[C@H](C(=O)N4CC[C@@H](N)[C@H]4CO)C3)[C@H](C)[C@H]12 [Example 523, (4R,5S,6R)-6-((R)-1-(2-(1H-tetrazol-1-yl)acetamido)ethyl)-3-((3S,5S)-5-((2S,3R)-3-amino-2-(hydroxymethyl)pyrrolidine-1-carbonyl)pyrrolidin-3-ylthio)-4-methyl-7-oxo-1-azabicyclo[3.2.0]hept-2-ene-2-carboxylic acid] |  |  |  |  | 0.125 (≈ 0.222 µM) | 2 (≈ 3.55 µM) | 1 (≈ 1.77 µM) | 1 (≈ 1.77 µM) | 
6 | C[C@@H](NC(=O)Cn1cnnn1)[C@H]1C(=O)N2C(C(=O)O)=C(S[C@@H]3CN[C@H](C(=O)N4CC(O)C(CN)C4)C3)[C@H](C)[C@H]12 (single isomer, unassigned) [Example 510] | 0.25 (≈ 0.444 µM) | 4 (≈ 7.1 µM) | 1 (≈ 1.77 µM) | 4 (≈ 7.1 µM) |  |  |  |  | 
7 | C[C@@H](NC(=O)Cn1cnnn1)[C@H]1C(=O)N2C(C(=O)O)=C(S[C@@H]3CN[C@H](C(=O)N4C[C@H]5C[C@H](N)C[C@@]5(N)C4)C3)[C@H](C)[C@H]12 [Example 574, (4R,5S,6R)-6-((R)-1-(2-(1H-tetrazol-1-yl)acetamido)ethyl)-3-((3S,5S)-5-((3aS,5S,6aR)-3a,5-diaminooctahydrocyclo-penta[c]pyrrole-2-carbonyl)pyrrolidin-3-ylthio)-4-methyl-7-oxo-1-azabicyclo[3.2.0]hept-2-ene-2-carboxylic acid] | 0.5 (≈ 0.849 µM) | 8 (≈ 13.6 µM) | 2 (≈ 3.4 µM) | 4 (≈ 6.79 µM) |  |  |  |  | 
8 | C[C@@H](NC(=O)Cn1cnnn1)[C@H]1C(=O)N2C(C(=O)[O-])=C(Sc3cn(C[C@@H]4CCNC4)[n+](C)c3)[C@H](C)[C@H]12 [Example 597, (4R,5S,6R)-6-((R)-1-(2-(1H-tetrazol-1-yl)acetamido)ethyl)-4-methyl-3-(2-methyl-1-((R)-pyrrolidin-3-ylmethyl)-1H-pyrazol-2-ium-4-ylthio)-7-oxo-1-azabicyclo[3.2.0]hept-2-ene-2-carboxylate] | 4 (≈ 7.76 µM) | 4 (≈ 7.76 µM) | 32 (≈ 62.1 µM) | 32 (≈ 62.1 µM) |  |  |  |  | 
9 | C[C@@H](NC(=O)Cn1cnnn1)[C@H]1C(=O)N2C(C(=O)O)=C(S[C@@H]3CN[C@H](C(=O)N4CC5C[C@@H](NC(=N)N)C[C@]5(CO)C4)C3)[C@H](C)[C@H]12 (stereo partly drawn) [Example 585, (4R,5S,6R)-6-((R)-1-(2-(1H-tetrazol-1-yl)acetamido)ethyl)-3-((3S,5S)-5-((3aR,5R)-5-guanidino-3a-(hydroxymethyl)octahydrocyclopenta[c]pyrrole-2-carbonyl)pyrrolidin-3-ylthio)-4-methyl-7-oxo-1-azabicyclo[3.2.0]hept-2-ene-2-carboxylic acid] | 0.125 (≈ 0.194 µM) | 2 (≈ 3.1 µM) | 4 (≈ 6.19 µM) | 1 (≈ 1.55 µM) |  |  |  |  | 
10 | C[C@@H](NC(=O)Cn1cnnn1)[C@H]1C(=O)N2C(C(=O)O)=C(S[C@@H]3CN[C@H](C(=O)N4C[C@H](N)C[C@H]4C(=O)O)C3)[C@H](C)[C@H]12 [Example 453, (4R,5S,6R)-6-((R)-1-(2-(1H-tetrazol-1-yl)acetamido)ethyl)-3-((3S,5S)-5-((2S,4R)-4-amino-2-carboxypyrrolidine-1-carbonyl)pyrrolidin-3-ylthio)-4-methyl-7-oxo-1-azabicyclo[3.2.0]hept-2-ene-2-carboxylic acid] | 0.125 (≈ 0.216 µM) | 16 (≈ 27.7 µM) | 8 (≈ 13.8 µM) | 2 (≈ 3.46 µM) |  |  |  |  | 
11 | C[C@@H](NC(=O)Cn1cnnn1)[C@H]1C(=O)N2C(C(=O)O)=C(S[C@@H]3CN[C@H](C(=O)N4CC(F)(CN)C4)C3)[C@H](C)[C@H]12 [Example 344, (4R,5S,6R)-6-((R) - 1-(2-(1H-tetrazol-1-yl)acetamido)ethyl)-3-((3S,5S)-5-(3-(aminomethyl)-3-fluoroazetidine-1-carbonyl)pyrrolidin-3-ylthio)-4-methyl-7-oxo-1-azabicyclo[3.2.0]hept-2-ene-2-carboxylic acid] | 1 (≈ 1.81 µM) | 16 (≈ 29 µM) | 16 (≈ 29 µM) | 16 (≈ 29 µM) |  |  |  |  | 
12 | C[C@@H](NC(=O)CSc1nnnn1C)[C@H]1C(=O)N2C(C(=O)O)=C(S[C@@H]3CN[C@H](C(=O)N(C)C)C3)[C@H](C)[C@H]12 [Example 321, (4R,5S,6R)-3-((3S,5S)-5-(dimethylcirbamoyl)pyrrolidin-3-ylthio)-4-methyl-6-((R) - 1-(2-(1-methyl-1H-tetrazol-5-ylthio)acetamido)ethyl)-7-oxo-1-azabicyclo[3.2.0]hept-2-ene-2-carboxylic acid] | 1 (≈ 1.86 µM) | 2 (≈ 3.71 µM) | > 128 | 8 (≈ 14.9 µM) |  |  |  |  | 
13 | CNCC(=O)N[C@H](C)[C@H]1C(=O)N2C(C(=O)O)=C(S[C@@H]3CN[C@H](CNC(=O)[C@H]4CC[C@@H](N)C4)C3)[C@H](C)[C@H]12 [Example 255] | 4 (≈ 7.65 µM) | 8 (≈ 15.3 µM) | 32 (≈ 61.2 µM) | 8 (≈ 15.3 µM) |  |  |  |  | 
14 | C[C@@H](NC(=O)Cn1cnnn1)[C@H]1C(=O)N2C(C(=O)O)=C(S[C@@H]3CN[C@H](C(=O)N4CCC(C)(N)CC4)C3)[C@H](C)[C@H]12 [Example 332, (4R,5S,6R)-6-((R) - 1-(2-(1H-tetrazol-1-yl)acetamido)ethyl)-3-((3S,5S)-5-(4-amino-4-methylpiperidine-1-carbonyl)pyrrolidin-3-ylthio)-4-methyl-7-oxo-1-azabicyclo[3.2.0]hept-2-ene-2-carboxylic acid] | 1 (≈ 1.78 µM) | 8 (≈ 14.2 µM) | 8 (≈ 14.2 µM) | 4 (≈ 7.12 µM) |  |  |  |  | 
